PubChem BioAssay (NCI)
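Cultured in 96-well plates, cells were exposed to test compound for 48 hours across five concentrations. TGI marks complete inhibition of growth.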

Legend:
Assay in all cases: inhibition of tumour cell growth, NCI panel, 48 h
[1] = tested on: 786-0 renal
[2] = tested on: A498 renal
[3] = tested on: A549 NSCLC
[4] = tested on: ACHN renal
[5] = tested on: BT-549 breast
[6] = tested on: CAKI-1 renal
[7] = tested on: COLO 205 colon
[8] = tested on: DU-145 prostate
[9] = tested on: EKVX NSCLC
[10] = tested on: HCC-2998 colon
[11] = tested on: HCT-116 colon
[12] = tested on: HCT-15 colon
[13] = tested on: HOP-62 NSCLC
[14] = tested on: HOP-92 NSCLC
[15] = tested on: HT29 colon
[16] = tested on: IGROV1 ovarian
[17] = tested on: K-562 leukemia
[18] = tested on: KM12 colon
[19] = tested on: LOX IMVI melanoma
[20] = tested on: MALME-3M melanoma
[21] = tested on: MCF7 breast
[22] = tested on: MDA-MB-231 breast
[23] = tested on: MDA-MB-435
[24] = tested on: MDA-N
[25] = tested on: MOLT-4 leukemia
[26] = tested on: NCI-H226 lung
[27] = tested on: NCI-H23 lung
[28] = tested on: NCI-H460 lung
[29] = tested on: NCI-H522 lung
[30] = tested on: NCI/ADR-RES ovarian
[31] = tested on: OVCAR-3 ovarian
[32] = tested on: OVCAR-4 ovarian
[33] = tested on: OVCAR-5 ovarian
[34] = tested on: OVCAR-8 ovarian
[35] = tested on: PC-3 prostate
[36] = tested on: RXF 393 renal
[37] = tested on: SF-268 CNS
[38] = tested on: SF-295 CNS
[39] = tested on: SF-539 CNS
[40] = tested on: SK-MEL-2 melanoma
[41] = tested on: SK-MEL-28 melanoma
[42] = tested on: SK-MEL-5 melanoma
[43] = tested on: SK-OV-3 ovarian
[44] = tested on: SN12C renal
[45] = tested on: SNB-19 CNS
[46] = tested on: SNB-75 CNS
[47] = tested on: SR leukemia
[48] = tested on: SW-620 colon
[49] = tested on: T-47D breast
[50] = tested on: TK-10 renal
[51] = tested on: U251 CNS
[52] = tested on: UACC-257 melanoma
[53] = tested on: UACC-62 melanoma
[54] = tested on: CCRF-CEM leukemia
[55] = tested on: HL-60(TB) leukemia
[56] = tested on: M14 melanoma
[57] = tested on: RPMI-8226 leukemia
[58] = tested on: UO-31 renal
[59] = tested on: HS 578T breast

For COc1ccc(/C=C2/SC(c3c(O)ccc4ccccc34)N(NC(=O)CCCCCCCCC(=O)NN3C(=O)/C(=C\c4ccc(OC)c(OC)c4)SC3c3c(O)ccc4ccccc34)C2=O)cc1OC (stereo not given), the TGI [1] was greater than 20.5 µM, the TGI [2] was 49.3 µM and the TGI [3] was greater than 21.4 µM. It also gave a TGI [4] greater than 54.1 µM, a TGI [5] greater than 100 µM and a TGI [6] greater than 100 µM. It also gave a TGI [7] greater than 29.9 µM, a TGI [8] greater than 100 µM and a TGI [9] greater than 100 µM. It also gave a TGI [10] greater than 100 µM, a TGI [11] greater than 100 µM and a TGI [12] greater than 100 µM. It also gave a TGI [13] greater than 39.8 µM, a TGI [14] of 23.3 µM and a TGI [15] greater than 100 µM. It also gave a TGI [16] of 10.7 µM, a TGI [17] of 17 µM and a TGI [18] greater than 100 µM. For the same molecule, the TGI [19] was 12.8 µM, the TGI [20] was 51.4 µM and the TGI [21] was greater than 100 µM. It also gave a TGI [22] greater than 91.7 µM, a TGI [23] greater than 100 µM and a TGI [24] greater than 100 µM. The TGI [25] was 2.9 µM, the TGI [26] was 15.9 µM and the TGI [27] was greater than 75 µM. It also gave a TGI [28] greater than 100 µM, a TGI [29] greater than 100 µM and a TGI [30] of 32.1 µM. It also gave a TGI [31] greater than 58.5 µM, a TGI [32] greater than 100 µM and a TGI [33] greater than 100 µM. It also gave a TGI [34] of 20.2 µM, a TGI [35] greater than 100 µM and a TGI [36] greater than 79.7 µM. The TGI [37] was greater than 100 µM, the TGI [38] was greater than 100 µM and the TGI [39] was 46 µM. For the same molecule, the TGI [40] was greater than 41.6 µM, the TGI [41] was greater than 100 µM and the TGI [42] was 2.29 µM. For the same molecule, the TGI [43] was greater than 52.9 µM, the TGI [44] was greater than 100 µM and the TGI [45] was greater than 91.7 µM. It also gave a TGI [46] greater than 100 µM, a TGI [47] of 1.62 µM and a TGI [48] greater than 100 µM. The TGI [49] was 48.9 µM, the TGI [50] was greater than 100 µM and the TGI [51] was 96.8 µM. It also gave a TGI [52] greater than 28.5 µM and a TGI [53] of 11.2 µM.
With O=C(c1cccc2cc(O)ccc12)c1cn(CCN2CCOCC2)c2ccccc12 the TGI [1] was 42.3 µM, the TGI [4] was greater than 100 µM and the TGI [5] was 56.9 µM. For the same molecule, the TGI [6] was greater than 100 µM, the TGI [54] was 34.4 µM and the TGI [7] was 78.8 µM. For the same molecule, the TGI [8] was 73 µM, the TGI [9] was 64.8 µM and the TGI [11] was 38.9 µM. For the same molecule, the TGI [55] was 55.5 µM, the TGI [13] was 46.1 µM and the TGI [14] was 71.6 µM. For the same molecule, the TGI [15] was 37.1 µM, the TGI [16] was 43.4 µM and the TGI [17] was greater than 100 µM. It also gave a TGI [19] of 39.1 µM, a TGI [56] of 36.9 µM and a TGI [20] of 56.3 µM. For the same molecule, the TGI [21] was 66.8 µM, the TGI [22] was 45.3 µM and the TGI [24] was 58.3 µM. For the same molecule, the TGI [25] was 62.9 µM, the TGI [26] was 87.3 µM and the TGI [27] was greater than 100 µM. The TGI [29] was 61.4 µM, the TGI [33] was 73.5 µM and the TGI [34] was greater than 100 µM. It also gave a TGI [35] of 35.5 µM, a TGI [57] of 68.8 µM and a TGI [36] of 43.6 µM. For the same molecule, the TGI [37] was greater than 100 µM, the TGI [39] was greater than 100 µM and the TGI [40] was 25 µM. For the same molecule, the TGI [41] was greater than 100 µM, the TGI [42] was 55.3 µM and the TGI [44] was greater than 100 µM. The TGI [45] was greater than 100 µM, the TGI [47] was greater than 100 µM and the TGI [48] was greater than 100 µM. The TGI [49] was greater than 100 µM, the TGI [50] was 50.9 µM and the TGI [52] was 56 µM. For the same molecule, the TGI [53] was 38.5 µM and the TGI [58] was 71.4 µM.
CCCCSC1=N/C(=C\c2ccc(N(C)C)cc2)C(Cl)=N1 showed a TGI [1] greater than 100 µM, a TGI [2] greater than 100 µM and a TGI [3] greater than 100 µM. It also gave a TGI [4] greater than 100 µM, a TGI [5] greater than 100 µM and a TGI [6] greater than 100 µM. The TGI [7] was greater than 100 µM, the TGI [8] was greater than 100 µM and the TGI [9] was greater than 100 µM. It also gave a TGI [10] greater than 100 µM, a TGI [11] greater than 100 µM and a TGI [12] greater than 100 µM. The TGI [13] was greater than 100 µM, the TGI [14] was greater than 100 µM and the TGI [59] was greater than 100 µM. For the same molecule, the TGI [15] was greater than 100 µM, the TGI [16] was greater than 100 µM and the TGI [17] was greater than 100 µM. For the same molecule, the TGI [18] was greater than 100 µM, the TGI [19] was greater than 100 µM and the TGI [56] was greater than 100 µM. For the same molecule, the TGI [20] was greater than 100 µM, the TGI [21] was greater than 100 µM and the TGI [22] was greater than 100 µM. The TGI [23] was greater than 100 µM, the TGI [24] was greater than 100 µM and the TGI [25] was greater than 100 µM. The TGI [26] was greater than 100 µM, the TGI [27] was greater than 100 µM and the TGI [28] was greater than 100 µM. It also gave a TGI [29] greater than 100 µM, a TGI [30] greater than 100 µM and a TGI [31] greater than 100 µM. For the same molecule, the TGI [32] was greater than 100 µM, the TGI [33] was greater than 100 µM and the TGI [34] was greater than 100 µM. It also gave a TGI [35] greater than 100 µM, a TGI [57] greater than 100 µM and a TGI [36] greater than 100 µM. It also gave a TGI [37] greater than 100 µM, a TGI [38] greater than 100 µM and a TGI [39] greater than 100 µM. For the same molecule, the TGI [40] was greater than 100 µM, the TGI [41] was greater than 100 µM and the TGI [43] was greater than 100 µM. It also gave a TGI [44] greater than 100 µM, a TGI [45] greater than 100 µM and a TGI [46] greater than 100 µM. The TGI [48] was greater than 100 µM, the TGI [49] was greater than 100 µM and the TGI [50] was greater than 100 µM. The TGI [51] was greater than 100 µM, the TGI [52] was greater than 100 µM and the TGI [53] was greater than 100 µM. For the same molecule, the TGI [58] was greater than 100 µM.
Cc1ccc(NC(=S)N=Nc2c(O)[nH]c3ccccc23)cc1 was tested, and the TGI [1] was greater than 100 µM, the TGI [2] was greater than 100 µM and the TGI [3] was greater than 100 µM. The TGI [4] was greater than 100 µM, the TGI [6] was greater than 100 µM and the TGI [54] was greater than 100 µM. It also gave a TGI [7] greater than 100 µM, a TGI [8] greater than 100 µM and a TGI [9] greater than 100 µM. It also gave a TGI [10] greater than 100 µM, a TGI [11] greater than 100 µM and a TGI [12] greater than 100 µM. For the same molecule, the TGI [55] was greater than 100 µM, the TGI [13] was greater than 100 µM and the TGI [14] was greater than 100 µM. It also gave a TGI [59] greater than 100 µM, a TGI [15] greater than 100 µM and a TGI [16] greater than 100 µM. It also gave a TGI [17] greater than 100 µM, a TGI [18] greater than 100 µM and a TGI [19] greater than 100 µM. The TGI [56] was greater than 100 µM, the TGI [20] was greater than 100 µM and the TGI [21] was greater than 100 µM. The TGI [22] was greater than 100 µM, the TGI [23] was greater than 100 µM and the TGI [24] was greater than 100 µM. It also gave a TGI [25] greater than 100 µM, a TGI [26] greater than 100 µM and a TGI [27] greater than 100 µM. It also gave a TGI [28] greater than 100 µM, a TGI [29] greater than 100 µM and a TGI [30] greater than 100 µM. The TGI [31] was greater than 100 µM, the TGI [32] was greater than 100 µM and the TGI [33] was greater than 100 µM. The TGI [34] was greater than 100 µM, the TGI [35] was greater than 100 µM and the TGI [57] was greater than 100 µM. It also gave a TGI [36] greater than 100 µM, a TGI [37] greater than 100 µM and a TGI [38] greater than 100 µM. It also gave a TGI [39] greater than 100 µM, a TGI [40] greater than 100 µM and a TGI [41] greater than 100 µM. It also gave a TGI [42] greater than 100 µM, a TGI [43] greater than 100 µM and a TGI [44] greater than 100 µM. It also gave a TGI [45] greater than 100 µM, a TGI [46] greater than 100 µM and a TGI [47] greater than 100 µM. For the same molecule, the TGI [48] was greater than 100 µM, the TGI [49] was greater than 100 µM and the TGI [50] was greater than 100 µM. It also gave a TGI [51] greater than 100 µM, a TGI [52] greater than 100 µM and a TGI [53] greater than 100 µM. For the same molecule, the TGI [58] was greater than 100 µM.
